In PMC12257390, “Characterization of Clinically Evaluated Small-Molecule Inhibitors of PD-L1 for Immunotherapy” (ACS Medicinal Chemistry Letters, 2025) one finds IC50 data, which are given here for two compounds.

A word on the IC50: it is the concentration that inhibits the measured activity by half. Lower therefore signals greater potency.

Experiment [1] deals with T1, PD-L1 (Homo sapiens, UniProt Q9NZQ7).
T1 construct: gene CD274
The experiment in a line: X-ray co-crystal structure ([…] Å), 1H NMR binding; IC50 from HTRF PD-1/PD-L1 disruption. For orientation: TR-FRET usually uses a lanthanide donor and a delayed reading to cut background.

The target of experiment [2] is T1, PD-L1. Described as above. The source holds these as a separate data set.

The structures appear in SMILES notation. Where two headings read alike, the source gives them in different places.

T1 sequence (Q9NZQ7 19-290): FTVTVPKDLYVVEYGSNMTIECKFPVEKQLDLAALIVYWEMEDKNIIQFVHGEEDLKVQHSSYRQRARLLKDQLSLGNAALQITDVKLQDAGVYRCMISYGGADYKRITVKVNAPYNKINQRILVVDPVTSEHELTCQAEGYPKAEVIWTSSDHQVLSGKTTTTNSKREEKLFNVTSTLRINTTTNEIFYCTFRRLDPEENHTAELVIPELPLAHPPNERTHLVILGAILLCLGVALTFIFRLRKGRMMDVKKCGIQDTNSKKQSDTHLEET

In the case of `Cc1c(Nc2nccc3cc(CN4CC[C@@H](O)C4)cnc23)cccc1-c1cccc(-c2nc3cc(CN4CC[C@@H](C(=O)O)C4)cc(C#N)c3o2)c1C` [INCB086550], at PD-L1 [1], the IC50 was determined as 2.59 ± 0.09 nM.
For `Cc1c(C=Cc2cc(CNC(C)(CO)C(=O)O)ccc2C(F)(F)F)cccc1-c1ccc2c(c1)OCCO2` (centres unmarked) [MAX-10181], at PD-L1 [2], the IC50 turned out to be 6.88 ± 0.12 nM.
